pIC50: −log10 of the molar value.
What was measured:
[1] = target: T1, Serine/threonine-protein kinase B-raf (Homo sapiens, UniProt P15056, V600E); assay: Inhibition of BRAF V600E mutant-mediated MEK phosphorylation in human HT-29 cells by Western blotting analysis; type: cell-based
[2] = target: T2, Serine/threonine-protein kinase B-raf (Homo sapiens, UniProt P15056); assay: Inhibition of BRAF (unknown origin)
[3] = target: T1, Serine/threonine-protein kinase B-raf; assay: Inhibition of N-terminal 6X-His tagged human BRAF V600E mutant (433 to 726) by ELISA
[4] = target: T2, Serine/threonine-protein kinase B-raf; assay: Inhibition of N-terminal 6X-His tagged human wild-type BRAF by ELISA
[5] = target: T1, Serine/threonine-protein kinase B-raf; assay: Inhibition of BRAF V600E mutant (unknown origin)
A-375 = assay: Antiproliferative activity against human A375 cells; type: functional, cell-based
[6] = Antiproliferative activity against human WM266.4 cells; type: functional, cell-based; conditions: WM 266-4
[7] = target: T2, Serine/threonine-protein kinase B-raf; assay: Inhibition of BRAF (unknown origin)-mediated ERK phosphorylation

T2 sequence (P15056 whole entry): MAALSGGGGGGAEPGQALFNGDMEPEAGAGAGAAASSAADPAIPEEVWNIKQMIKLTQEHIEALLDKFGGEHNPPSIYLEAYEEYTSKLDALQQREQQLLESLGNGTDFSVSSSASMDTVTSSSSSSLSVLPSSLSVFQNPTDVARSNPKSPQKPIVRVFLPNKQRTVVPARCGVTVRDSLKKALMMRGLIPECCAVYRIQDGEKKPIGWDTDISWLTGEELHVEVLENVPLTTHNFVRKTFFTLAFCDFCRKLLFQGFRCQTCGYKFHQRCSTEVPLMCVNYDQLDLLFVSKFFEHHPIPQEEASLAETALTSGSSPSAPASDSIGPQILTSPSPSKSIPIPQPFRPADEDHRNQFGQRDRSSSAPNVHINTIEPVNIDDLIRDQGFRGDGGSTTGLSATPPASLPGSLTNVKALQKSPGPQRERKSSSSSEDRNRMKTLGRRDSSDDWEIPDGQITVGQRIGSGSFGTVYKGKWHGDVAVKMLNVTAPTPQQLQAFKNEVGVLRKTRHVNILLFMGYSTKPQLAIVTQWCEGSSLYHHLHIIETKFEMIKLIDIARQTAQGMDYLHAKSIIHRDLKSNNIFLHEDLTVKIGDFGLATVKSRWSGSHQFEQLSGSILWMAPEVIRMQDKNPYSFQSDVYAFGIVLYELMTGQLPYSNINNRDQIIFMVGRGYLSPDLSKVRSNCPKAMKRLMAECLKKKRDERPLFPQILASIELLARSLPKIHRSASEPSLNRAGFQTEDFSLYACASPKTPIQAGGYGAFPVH
T1 sequence (P15056 2-766 V600E limits assumed): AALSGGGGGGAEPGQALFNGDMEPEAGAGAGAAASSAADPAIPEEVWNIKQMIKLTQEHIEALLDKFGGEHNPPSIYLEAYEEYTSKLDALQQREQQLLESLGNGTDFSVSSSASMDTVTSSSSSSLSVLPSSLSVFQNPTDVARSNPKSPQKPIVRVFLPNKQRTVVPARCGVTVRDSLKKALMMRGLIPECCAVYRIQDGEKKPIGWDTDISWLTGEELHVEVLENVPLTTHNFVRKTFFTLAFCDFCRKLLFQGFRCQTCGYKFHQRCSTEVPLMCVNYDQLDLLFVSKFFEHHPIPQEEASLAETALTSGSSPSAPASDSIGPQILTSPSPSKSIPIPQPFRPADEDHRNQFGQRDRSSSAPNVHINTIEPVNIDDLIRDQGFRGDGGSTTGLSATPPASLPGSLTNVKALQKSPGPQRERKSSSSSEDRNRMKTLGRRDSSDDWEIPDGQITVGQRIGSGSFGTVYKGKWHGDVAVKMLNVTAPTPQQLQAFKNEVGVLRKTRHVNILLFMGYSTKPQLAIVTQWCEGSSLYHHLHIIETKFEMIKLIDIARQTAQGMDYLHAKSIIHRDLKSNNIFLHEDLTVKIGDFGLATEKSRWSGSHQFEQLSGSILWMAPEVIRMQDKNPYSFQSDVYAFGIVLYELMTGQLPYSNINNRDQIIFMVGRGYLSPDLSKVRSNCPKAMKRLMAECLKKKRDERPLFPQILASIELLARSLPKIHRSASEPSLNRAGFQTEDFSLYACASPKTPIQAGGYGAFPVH

O=C(Nc1cccc(Oc2ccc3nc(NC(=O)C4CCOCC4)cn3n2)c1)c1cccc(C(F)(F)F)c1
pIC50 [1]: 5.42 | pIC50 [2]: 7.37

O=C1NC(=S)NC(=O)C1=Cc1ccc(-c2ccc3c(c2)OCO3)o1
pIC50 [3]: 6.52 | pIC50 [4]: 5.94

O=C(Nc1ccccc1)N(Cc1ccc(Br)cc1O)c1cc(-c2ccccc2)[nH]n1
pIC50 [5]: 6.72 | pIC50 (A-375): 5.88 | pIC50 [6]: 5.82

O/N=C1\CCc2cc(-c3cn(C4CCNCC4)nc3-c3ccncc3)ccc21
pIC50 [7]: 8.05

— ChEMBL document CHEMBL3232715, “Recent progress in the identification of BRAF inhibitors as anti-cancer agents” (Eur J Med Chem, 2014)
